Measurements taken from patent US10597388B2, “Pyridazinone herbicides” (FMC CORPORATION, priority 2014, dated 2020).

Assays:
Format in all cases: in vivo
[1] = tested on: pigweed (Amaranthus retroflexus); assay: Test A greenhouse herbicide test, pre- and postemergence
Outline: (§1)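 Seeds sown in loam–sand blend got a preemergence directed soil spray of compound in non-phytotoxic solvent with surfactant. Postemergence treatment was given at 2–10 cm, one- to two-leaf stage. After ~10 d in greenhouse, injury was rated visually vs untreated controls, 0 (no effect) to 100 (complete control).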

corn (Zea mays) = assay: as above; conditions: Postemergence
Outline: as §1

[2] = tested on: ragweed (common ragweed, Ambrosia elatior); assay: as above
Outline: as §1

[3] = tested on: wheat (Triticum aestivum); assay: as above; conditions: Postemergence
Outline: as §1

[4] = tested on: foxtail, giant (giant foxtail, Setaria faberii); assay: as above
Outline: as §1

kochia (Kochia scoparia) = assay: as above
Outline: as §1

[5] = tested on: ryegrass, Italian (Italian ryegrass, Lolium multiflorum); assay: as above
Outline: as §1

[6] = tested on: oilseed rape (Brassica napus); assay: Test C greenhouse herbicide test, pre- and postemergence
Outline: (§2)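 Two application timings: at sowing into a soil/sand blend, and on 2–18 cm seedlings in peat-vermiculite potting mix. A non-phytotoxic, surfactant-containing solvent carried the compounds. Plants were compared with controls and rated visually on 0–100 after 13–15 d.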

[7] = tested on: velvetleaf (Abutilon theophrasti); assay: as above
Outline: as §2

[8] = tested on: nutsedge, yellow (yellow nutsedge, Cyperus esculentus); assay: as above
Outline: as §2

[9] = tested on: galium (catchweed bedstraw, Galium aparine); assay: as above
Outline: as §2

[10] = Postemergence, 125 g ai/ha, 0 to 100 scale where 0 is no effect and 100 is complete control
[11] = Postemergence, 500 g ai/ha, visual rating after approx. 10 d, 0 to 100 scale (0 no effect, 100 complete control)
[12] = Preemergence, 125 g ai/ha, 0 to 100 scale where 0 is no effect and 100 is complete control
[13] = Preemergence, 500 g ai/ha, 0 to 100 scale where 0 is no effect and 100 is complete control
[14] = 125 g ai/ha, 0 to 100 scale where 0 is no effect and 100 is complete control
[15] = 500 g ai/ha, visual rating after approx. 10 d, 0 to 100 scale (0 no effect, 100 complete control)
[16] = Postemergence, 31 g ai/ha, scale 0 to 100 (0 no effect, 100 complete control)
[17] = Postemergence, 125 g ai/ha, scale 0 to 100, 0 is no effect, 100 is complete control
[18] = Postemergence, 250 g ai/ha, scale 0 to 100, 0 no effect, 100 complete control, 13 to 15 d
[19] = Preemergence, 31 g ai/ha, scale 0 to 100, 0 is no effect, 100 is complete control
[20] = Preemergence, 62 g ai/ha, scale 0 to 100, 0 is no effect, 100 is complete control
[21] = Preemergence, 125 g ai/ha, scale 0 to 100, 0 is no effect, 100 is complete control
[22] = Preemergence, 250 g ai/ha, scale 0 to 100 (0 no effect, 100 complete control)

## Cc1sc2ccc(Cl)cc2c1-c1c(OS(C)(=O)=O)c(Cl)nn(C)c1=O [Compound 114]
[1]; [10]
  Plant response rating, Pigweed: 90
[1]; [11]
  Plant response rating, Pigweed: 90
[1]; [12]
  Pigweed plant response rating: 100
[1]; [13]
  Plant response rating, Pigweed: 100
Corn (Zea mays); [14]
  Plant response rating, Corn: 0
Corn (Zea mays); [15]
  Plant response rating, Corn: 30
[2]; [10]
  Plant response rating, Ragweed: 70
[2]; [11]
  Plant response rating, Ragweed: 80
[2]; [12]
  Ragweed plant response rating: 80
[2]; [13]
  Plant response rating, Ragweed: 90
[3]; [14]
  Plant response rating, Wheat: 20
[3]; [15]
  Plant response rating, Wheat: 40
[4]; [10]
  Plant response rating, Foxtail, Giant: 70
[4]; [11]
  Plant response rating, Foxtail, Giant: 90
[4]; [12]
  Foxtail, Giant plant response rating: 40
[4]; [13]
  Plant response rating, Foxtail, Giant: 90
Kochia (Kochia scoparia); [10]
  Plant response rating, Kochia: 30
Kochia (Kochia scoparia); [11]
  Plant response rating, Kochia: 60
Kochia (Kochia scoparia); [12]
  Kochia plant response rating: 30
Kochia (Kochia scoparia); [13]
  Plant response rating, Kochia: 100
[5]; [10]
  Plant response rating, Ryegrass, Italian: 90
[5]; [11]
  Plant response rating, Ryegrass, Italian: 90
[5]; [12]
  Ryegrass, Italian plant response rating: 80
[5]; [13]
  Plant response rating, Ryegrass, Italian: 90
[6]; [16]
  Plant response rating, Oilseed Rape: 15
[6]; [17]
  Plant response rating, Oilseed Rape: 40
[6]; [18]
  Plant response rating, Oilseed Rape: 80
[6]; [19]
  Plant response rating, Oilseed Rape: 30
[6]; [20]
  Plant response rating, Oilseed Rape: 98
[6]; [21]
  Plant response rating, Oilseed Rape: 100
[6]; [22]
  Oilseed Rape plant response rating: 100
[7]; [16]
  Plant response rating, Velvetleaf: 25
[7]; [17]
  Plant response rating, Velvetleaf: 55
[7]; [18]
  Plant response rating, Velvetleaf: 85
[7]; [19]
  Plant response rating, Velvetleaf: 45
[7]; [20]
  Plant response rating, Velvetleaf: 60
[7]; [21]
  Plant response rating, Velvetleaf: 85
[7]; [22]
  Velvetleaf plant response rating: 100
[8]; [16]
  Plant response rating, Nutsedge, Yellow: 10
[8]; [17]
  Plant response rating, Nutsedge, Yellow: 25
[8]; [18]
  Plant response rating, Nutsedge, Yellow: 35
[8]; [19]
  Plant response rating, Nutsedge, Yellow: 10
[8]; [20]
  Plant response rating, Nutsedge, Yellow: 40
[8]; [21]
  Plant response rating, Nutsedge, Yellow: 65
[8]; [22]
  Nutsedge, Yellow plant response rating: 95
[9]; [16]
  Plant response rating, Galium: 95
[9]; [17]
  Plant response rating, Galium: 95
[9]; [18]
  Plant response rating, Galium: 95
[9]; [19]
  Plant response rating, Galium: 98
[9]; [20]
  Plant response rating, Galium: 98
[9]; [21]
  Plant response rating, Galium: 100
[9]; [22]
  Galium plant response rating: 100

## Cc1nn(C)c(=O)c(-c2cc(F)cc3ccccc23)c1OS(C)(=O)=O [Compound 115]
[1]; [10]
  Plant response rating, Pigweed: 70
[1]; [11]
  Plant response rating, Pigweed: 90
[1]; [12]
  Pigweed plant response rating: 70
[1]; [13]
  Plant response rating, Pigweed: 100
Corn (Zea mays); [14]
  Plant response rating, Corn: 0
Corn (Zea mays); [15]
  Plant response rating, Corn: 20
[2]; [10]
  Plant response rating, Ragweed: 80
[2]; [11]
  Plant response rating, Ragweed: 100
[2]; [12]
  Ragweed plant response rating: 40
[2]; [13]
  Plant response rating, Ragweed: 90
[3]; [14]
  Plant response rating, Wheat: 20
[3]; [15]
  Plant response rating, Wheat: 30
[4]; [10]
  Plant response rating, Foxtail, Giant: 20
[4]; [11]
  Plant response rating, Foxtail, Giant: 90
[4]; [12]
  Foxtail, Giant plant response rating: 30
[4]; [13]
  Plant response rating, Foxtail, Giant: 50
Kochia (Kochia scoparia); [10]
  Plant response rating, Kochia: 70
Kochia (Kochia scoparia); [11]
  Plant response rating, Kochia: 90
Kochia (Kochia scoparia); [12]
  Kochia plant response rating: 30
Kochia (Kochia scoparia); [13]
  Plant response rating, Kochia: 90
[5]; [10]
  Plant response rating, Ryegrass, Italian: 100
[5]; [11]
  Plant response rating, Ryegrass, Italian: 100
[5]; [12]
  Ryegrass, Italian plant response rating: 100
[5]; [13]
  Plant response rating, Ryegrass, Italian: 100
[6]; [16]
  Plant response rating, Oilseed Rape: 0
[6]; [17]
  Plant response rating, Oilseed Rape: 0
[6]; [18]
  Plant response rating, Oilseed Rape: 0
[7]; [16]
  Plant response rating, Velvetleaf: 15
[7]; [17]
  Plant response rating, Velvetleaf: 70
[7]; [18]
  Plant response rating, Velvetleaf: 65
[8]; [16]
  Plant response rating, Nutsedge, Yellow: 40
[8]; [17]
  Plant response rating, Nutsedge, Yellow: 65
[8]; [18]
  Plant response rating, Nutsedge, Yellow: 80
[9]; [16]
  Plant response rating, Galium: 85
[9]; [17]
  Plant response rating, Galium: 95
[9]; [18]
  Plant response rating, Galium: 95

## Cc1nn(C)c(=O)c(-c2ccc(F)c3ccccc23)c1OC(=O)CC(F)(F)F [Compound 123]
[1]; [10]
  Plant response rating, Pigweed: 60
[1]; [11]
  Plant response rating, Pigweed: 70
[1]; [12]
  Pigweed plant response rating: 100
[1]; [13]
  Plant response rating, Pigweed: 100
Corn (Zea mays); [14]
  Plant response rating, Corn: 0
Corn (Zea mays); [15]
  Plant response rating, Corn: 20
[2]; [10]
  Plant response rating, Ragweed: 50
[2]; [11]
  Plant response rating, Ragweed: 90
[2]; [12]
  Ragweed plant response rating: 60
[2]; [13]
  Plant response rating, Ragweed: 70
[3]; [14]
  Plant response rating, Wheat: 0
[3]; [15]
  Plant response rating, Wheat: 20
[4]; [10]
  Plant response rating, Foxtail, Giant: 50
[4]; [11]
  Plant response rating, Foxtail, Giant: 60
[4]; [12]
  Foxtail, Giant plant response rating: 70
[4]; [13]
  Plant response rating, Foxtail, Giant: 70
Kochia (Kochia scoparia); [10]
  Plant response rating, Kochia: 70
Kochia (Kochia scoparia); [11]
  Plant response rating, Kochia: 70
Kochia (Kochia scoparia); [12]
  Kochia plant response rating: 50
Kochia (Kochia scoparia); [13]
  Plant response rating, Kochia: 100
[5]; [10]
  Plant response rating, Ryegrass, Italian: 90
[5]; [11]
  Plant response rating, Ryegrass, Italian: 100
[5]; [12]
  Ryegrass, Italian plant response rating: 90
[5]; [13]
  Plant response rating, Ryegrass, Italian: 100
[6]; [16]
  Plant response rating, Oilseed Rape: 0
[6]; [17]
  Plant response rating, Oilseed Rape: 0
[6]; [18]
  Plant response rating, Oilseed Rape: 5
[7]; [16]
  Plant response rating, Velvetleaf: 65
[7]; [17]
  Plant response rating, Velvetleaf: 85
[7]; [18]
  Plant response rating, Velvetleaf: 95
[8]; [16]
  Plant response rating, Nutsedge, Yellow: 55
[8]; [17]
  Plant response rating, Nutsedge, Yellow: 85
[8]; [18]
  Plant response rating, Nutsedge, Yellow: 90
[9]; [16]
  Plant response rating, Galium: 95
[9]; [17]
  Plant response rating, Galium: 95
[9]; [18]
  Plant response rating, Galium: 95
